Reference: patent publication US20240002379A1, “ASYMMETRIC CONJUGATE COMPOUNDS” (Pheon Therapeutics Ltd., priority 2016, published 2024)

Tests used:
[1] = test system: linear double-stranded 32P-end-labelled TyrT DNA fragment; assay: DNA interstrand cross-linking assay, denaturing polyacrylamide gel; assay type: biochemical; details: overnight incubation at 37° C., 10 concentrations tested, assay repeated twice
Procedure: The ability of 13 to cross-link DNA was determined using an assay involving a linear double-stranded TyrT fragment (FIG. 8).
Following denaturation conditions (treatment with formamide and heating at 65° C. for 5 min) the DNA strands were completely separated (see controls C2 and C4, FIG. 9). The presence of an interstrand cross-link holds the denatured strands in close proximity, and cross-linked adducts therefore run as double-stranded DNA on polyacrylamide gel.
The preparation of the TyrT DNA fragment (FIG. 8) and HexARev DNA fragment (FIG. 15) have been previously described (34). Briefly, the sequence which had been cloned into the BamHI site of pUC18 was obtained by cutting with HindIII and EcoRI. Radiolabelled DNA fragments were prepared by filling in the 3′-end of the HindIII site with [α-^32P]dATP using Klenow DNA polymerase (exo-).
The radiolabelled DNA fragment was separated from the remainder of the plasmid DNA on a 6% non-denaturing polyacrylamide gel. The gel (20 cm long, 0.3 mm thick) was run at 400 V in 1×TBE running buffer for about 1-2 h, until the bromophenol blue had run most of the way down the gel. The glass plates were separated and the position of the labelled DNA fragment was established by short (1 min) exposure to an X-ray film. […]

[2] = test system: fluorescently labelled DNA duplex 5′-[…]-3′; assay: FRET DNA melting, FIG. 13 bottom duplex (intrastrand); assay type: binding
Description: FRET DNA melting studies were undertaken on 13 using two fluorescently labelled sequences. The sequences (FIG. 13) were designed to provide additional evidence that 13 can form inter- and intrastrand cross-links. Inosines were inserted in place of traditional DNA bases to limit the number of binding sites available for 13 to interact with.
Oligonucleotides were obtained from ATDbio (Southampton, UK) in lyophilised form. They were labelled with a fluorophore molecule (F=fluorescein) at the 5′-end and a quencher molecule (Q=dabcyl) at the 3′-end of the complementary strand. Each oligonucleotide was dissolved in distilled H2O to form stock solutions of 100 PM. Working solutions of 5 μM were prepared by diluting the stock solution with distilled H2O. […]
The reaction mixture was comprised of 4 μL of 250 mM phosphate buffer (final concentration of 50 mM), 4 μL flourophor and 4 μL quencher molecule of the appropriate oligonucleotide for a final concentration of 0.2 PM, 4 μL 5 M sodium chloride (final concentration of 1 M NaCl), and 4 μL of distilled H2O. […] This mixture was analysed without prior annealing.
Fluorescence melting profiles were measured using a Roche LightCycler using a total reaction volume of 20 μL. […] Annealing steps and melting steps were all recorded and changes in fluorescence were measured at 520 nm. […]

Structure (SMILES): COc1cc2c(cc1OCCCC(=O)N1C[C@@H](CCl)c3c1cc(O)c1ccccc31)N=C[C@@H]1CCCCN1C2=O [Compound 13, (S)-3-(4-((S)-1-(Chloromethyl)-5-hydroxy-1,2-dihydro-3H-benzo[e]indol-3-yl)-4-oxobutoxy)-2-methoxy-7,8,9,10-tetrahydrobenzo[e]-pyrido[1,2-a][1,4]diazepin-12(6aH)-one]
- lowest concentration at which DNA cross-links are visible [1]: 10 nM
- change of melting temperature with compound concentration ([2]; FIG. 14 bottom panel): increases significantly
- Tm value ([2]; duplex alone melts below 30° C., suggests intra-strand cross-link): 60 °C
